Data as given in the SangsterLogP compilation.

How the values were obtained:
[1] = method code SF, from DOI: 10.1016/j.ejps.2005.05.001, PMID: 15955679

SMILES | logP | further results
COC(=O)c1cc(C(C)=O)c(C)[nH]c1=O | -0.09 | –
CCOC(=O)c1cc(C#N)c(=O)[nH]c1C | 0.65 | –
CC(=O)c1ccc(-c2ccccc2)[nH]c1=O | – | logP [1]: 1.74
O=C(c1ccccc1)c1cc2c([nH]c1=O)CCCC2 | – | logP [1]: 2.1
Cc1ccc(C#N)c(=O)[nH]1 | -0.13 | –
CC(=O)c1ccc(=O)[nH]c1C | – | logD ([1]; pH 7.4): -0.3
O=c1[nH]c2c(cc1S(=O)(=O)c1ccccc1)CCCC2 | – | logP [1]: 1.76
N#Cc1ccc(-c2cccnc2)[nH]c1=O | 0.05 | –
CC(=O)c1cc(C(=O)O)c(=O)[nH]c1C | -0.04 | –
Cc1[nH]c(=O)c(C#N)cc1C(=O)O | 0.15 | –
N#Cc1ccc(-c2ccncc2)[nH]c1=O | 0.02 | –
Cc1[nH]c(=O)c(C#N)cc1C(=O)OCC(C)C | 1.78 | –
N#Cc1ccc(-c2ccccn2)[nH]c1=O | 0.3 | –
